Results on 17 molecules are retold here after PMC6152057, “Multifunctional Cinnamic Acid Derivatives” (Molecules : A Journal of Synthetic Chemistry and Natural …, 2017).

A short description of data set [1]: Lipophilicity as RM values by RP-TLC. It is filed as physicochemical. On the set-up: key: RM = log[(1/Rf) − 1]. The note with it: MeOH:H2O (70/30), average of at least 5 measurements. The method, then:
Reversed phase TLC (RP-TLC) was performed on silica gel plates impregnated with 5% (v/v) liquid paraffin in light petroleum ether. The mobile phase was a methanol/water mixture (70/30, v/v). The plates were developed in closed chromatography tanks saturated with the mobile phase at 24 °C. Spots were detected under UV light. RM values were determined from the corresponding Rf values (from five individual measurements) using the equation RM = log[(1/Rf) − 1] (Table 1).

Data set [2] is described as follows: Inhibition of linoleic acid lipid peroxidation (AAPH). The note with it: 100 μM; AAPH-induced oxidation of sodium linoleate, pH 7.4, 37 °C; na = no activity.
Description: Production of conjugated diene hydro peroxide by oxidation of sodium linoleate in an aqueous solution was monitored at 234 nm. AAPH was used as a free radical initiator. Ten microliters of the 16 mM sodium linoleate solution was added to the UV cuvette containing 930 μL of 0.05 M phosphate buffer, pH 7.4 prethermostated at 37 °C. The oxidation reaction was initiated at 37 °C under air by the addition of 50 μL of 40 mM AAPH solution. 10 μL of the appropriate solutions of the tested compounds were added in the mixture. Lipid oxidation was measured in the presence of the same level of DMSO. The rate of oxidation at 37 °C was monitored by recording the increase in absorption at 234 nm caused by conjugated diene hydro peroxides [24].
The target of another data set is T1, trypsin (Bos taurus, UniProt P00760).
T1 construct: purchased Sigma Chemical, Co. (St. Louis, MO, USA); host or cells: bovine pancreas
T1 sequence (P00760 24-246): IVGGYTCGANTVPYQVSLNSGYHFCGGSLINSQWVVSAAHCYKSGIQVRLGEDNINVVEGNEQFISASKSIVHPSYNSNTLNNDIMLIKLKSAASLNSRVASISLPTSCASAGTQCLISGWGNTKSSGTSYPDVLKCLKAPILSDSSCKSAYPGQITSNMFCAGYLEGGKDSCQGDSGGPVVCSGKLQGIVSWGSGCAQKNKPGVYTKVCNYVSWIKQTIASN
Put plainly: Inhibition of trypsin induced proteolysis in vitro (modified Kunitz method). It is filed as biochemical, bovine. Particulars: for IC50: bovine albumin substrate, pH 7.6, 37 °C, read-out: IC50 μΜ, inhibition of trypsin induced proteolysis.

For another data set, the target named is T2, soybean lipoxygenase (Glycine max, UniProt P08170).
T2 construct: purchased Sigma Chemical, Co. (St. Louis, MO, USA)
T2 sequence (P08170 1-839): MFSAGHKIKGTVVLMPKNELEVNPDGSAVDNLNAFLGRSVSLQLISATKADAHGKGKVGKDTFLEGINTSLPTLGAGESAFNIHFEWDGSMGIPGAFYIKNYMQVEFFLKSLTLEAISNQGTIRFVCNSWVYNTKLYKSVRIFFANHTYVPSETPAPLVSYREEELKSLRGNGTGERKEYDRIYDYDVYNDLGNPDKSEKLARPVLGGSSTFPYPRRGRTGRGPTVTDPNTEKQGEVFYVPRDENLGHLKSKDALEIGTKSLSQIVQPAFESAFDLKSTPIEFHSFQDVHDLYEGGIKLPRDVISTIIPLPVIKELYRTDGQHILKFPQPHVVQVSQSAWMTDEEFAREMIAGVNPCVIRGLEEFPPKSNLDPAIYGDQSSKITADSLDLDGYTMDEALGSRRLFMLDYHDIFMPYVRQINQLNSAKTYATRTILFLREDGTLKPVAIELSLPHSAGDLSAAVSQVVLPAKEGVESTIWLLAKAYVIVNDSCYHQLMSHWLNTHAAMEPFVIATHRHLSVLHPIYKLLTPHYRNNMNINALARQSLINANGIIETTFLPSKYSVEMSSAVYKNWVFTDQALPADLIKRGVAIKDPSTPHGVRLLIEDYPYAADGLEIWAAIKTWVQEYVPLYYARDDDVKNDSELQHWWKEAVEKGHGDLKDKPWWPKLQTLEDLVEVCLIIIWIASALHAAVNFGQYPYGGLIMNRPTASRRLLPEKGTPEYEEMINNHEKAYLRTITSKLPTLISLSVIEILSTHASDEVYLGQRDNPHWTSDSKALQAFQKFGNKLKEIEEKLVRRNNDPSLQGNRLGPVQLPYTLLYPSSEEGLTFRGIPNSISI
Description: Soybean lipoxygenase inhibition in vitro (UV-based enzyme assay). The format is biochemical. Particulars: for IC50: sodium linoleate substrate, tris buffer pH 9, read-out: IC50 μΜ, inhibition of soybean lipoxygenase.

For data set [3], the system named is L929 mouse fibroblasts cells. Put plainly: Cytotoxicity, propidium iodide fluorescence method. It is filed as cell-based. The note with it: 24 h incubation, 1–100 μM. The method, then: The cytotoxicity of the synthesized derivatives was determined using the propidium iodide (PI) fluorescence method in the presence of different concentrations (1–100 μM) of these compounds. L929 mouse fibroblasts cells were used in this work since they have been previously used in the study of the pharmacological effects of antioxidant and anti-inflammatory agents. The cytotoxicity results of the new compounds against normal cells (such as the L929 fibroblasts) would give useful information as only non-cytotoxic compounds should be further evaluated as potential antioxidant drugs. The results are presented in Figure 1 in the form of the % cell survival values as propidium iodide % (PI)—values PI% for the examined compounds.
L929 mouse fibroblasts cells were cultured in EMEM supplemented with 10% horse serum, 2 mM L-glutamine, 1 mM sodium pyruvate, 0.1 mM nonessential amino acids, 1.5 g/L sodium bicarbonate and 100 μg/mL penicillin–streptomycin at 37 °C in a humidified atmosphere with 5% CO2. L929 cells were plated into 24-well plates at a density […] and allowed to attach and grow for 24 h. […] After 24 h incubation, the supernatant was removed and the cells were washed with PBS. […] The PI fluorescence (cell death) was determined with flow cytometry, FACS Calibur, Coulter Epics XL-MCL (Beckman, Inc., Mount Holly, NJ, USA). […]

“And” between values parts separate entries of the source, which are not always exact repeats. Identical values can stand only once. “Also recorded” adds a separate entry of the source.

Description for soybean lipoxygenase: The tested compounds were dissolved in DMSO (10 μL) and incubated at room temperature with sodium linoleate (100 mM) and 0.2 mL of enzyme solution (1/9 × 10^−4 w/v in saline) in buffer pH 9 (tris) at room temperature (final volume 1 mL). […] Several concentrations were used for the determination of IC50 values.
Description for trypsin: All chemicals, solvents, chemical and biochemical reagents were of analytical grade and purchased from commercial sources (Merck, Merck KGaA, Darmstadt, Germany, Fluka Sigma-Aldrich Laborchemikalien GmbH, Hannover, Germany, Alfa Aesar, Karlsruhe, Germany and Sigma, St. Louis, MO, USA). Soybean lipoxygenase, pancreatic bovine trypsin, sodium linoleate, 2,2-azobis (2-amidinopropane) dihydrochloride (AAPH) were obtained from Sigma Chemical, Co. (St. Louis, MO, USA).
The test was carried out according to a modified Kunitz method. Bovine albumin was used as substrate for trypsin [24]. The reaction mixture consisted of 200 μL of 0.075 mg/mL trypsin and 780 μL of phosphate buffer pH 7.6 (including the tested compounds (20 μL in DMSO, final concentration 100 μM) preincubated at 37 °C for 20 min and then 1 mL of albumin (stock solution 6 g/100 mL in phosphate buffer 0.1 M, pH 7.6) was added and incubated at 37 °C for 30 min. After the incubation 1 mL of 5% trichloroacetic acid was added to the incubated solution to stop the enzyme’s reaction and allowed to set at room temperature for 1 h. Then the solution was filtered and the absorption of the filtered solution was measured at 280 nm.

As to 3,4-dimethoxycaffeic acid [Compound 3], the “RM (±SD)” value in data set [1] is −0.869 ± 0.0614. The “ILP% @100 μΜ (% inhibition of lipid peroxidation)” value in data set [2] is on record as 86%.

A word on the IC50: it is the concentration at which inhibition is half-maximal. Consider `CC(C)NCC(O)COc1ccc(CC(N)=O)cc1` (stereo not shown) [Atenolol, atenolol, reference compound], for which the “Anti-proteolytic activity, trypsin inhibition (in words)” value on trypsin was “did not present any activity”. Moreover, on soybean lipoxygenase, the IC50 came to 22.5 µM.

As for `O=C(O)/C=C/c1ccccc1` [Compound 1, cinnamic acid], in data set [1], the “RM (±SD)” value is −0.485 and −0.485 ± 0.044. Also, the “ILP% @100 μΜ (% inhibition of lipid peroxidation)” value in data set [2] is on record as 78%.

A word on the melting point: it is the temperature, or range, at which the solid turns liquid. The molecule `CC(C)N(CC(O)COc1ccc(CC(N)=O)cc1)C(=O)/C=C/c1ccccc1` (stereo not shown) [Compound 1a] showed a melting point of 102 to 105 °C. Moreover, the “RM (±SD)” value in data set [1] is −0.720 and −0.720 ± 0.012. Further, the IC50 on trypsin came out at 0.315 µM. In addition, the concentration for half-maximal inhibition (IC50) at soybean lipoxygenase was determined as 66 µM. The “ILP% @100 μΜ (% inhibition of lipid peroxidation)” value in data set [2] is listed as 97%.

As to `CC(C)N(CC(O)COc1cccc2ccccc12)C(=O)/C=C/c1ccccc1` (stereo not shown) [Compound 1b, (E)-N-(2-hydroxy-3-(naphthalen-1-yloxy)propyl)-N-isopropylcinnamamide], the “RM (±SD)” value in data set [1] is 0.411 and 0.411 ± 0.061. Also, the IC50 on trypsin was 10 µM; at soybean lipoxygenase it was 50 µM. For the same molecule, in data set [3], the “Cytotoxicity on L929 cells as PI% values (in words)” value was “remarkable cytotoxicity”. Further, the “ILP% @100 μΜ (% inhibition of lipid peroxidation)” value in data set [2] is reported as 69%.

`O=C(/C=C/c1ccccc1)OC12CC3CC(CC(C3)C1)C2` [Compound 1c, (E)-adamantan-1-yl cinnamate] had a melting point of 183 to 185 °C. Besides, in data set [1], the “RM (±SD)” value is 0.911 and 0.911 ± 0.0112. Besides, the IC50 on trypsin is 49 µM. For the same molecule, the “Soybean LOX inhibition (in words)” value at soybean lipoxygenase is “low or no activity; also recorded: inactive”.

Take `O=C(/C=C/c1ccccc1)Oc1cccc2ccccc12` [Compound 1d, (E)-naphthalen-1-yl cinnamate]: the melting point lay within 210 to 212 °C. For the same molecule, the “RM (±SD)” value in data set [1] amounted to 0.0889 ± 0.002. At soybean lipoxygenase, the “Soybean LOX inhibition (in words)” value is “low or no activity” and the IC50 was determined as 27.5 µM. The “ILP% @100 μΜ (% inhibition of lipid peroxidation)” value in data set [2] is “inactive”.

`O=C(/C=C/c1ccccc1)OCCN(Cc1ccccc1)C(=O)/C=C/c1ccccc1` [Compound 1f, 2-(N-benzylcinnamamido) ethyl cinnamate]: the “RM (±SD)” value in data set [1] worked out at 0.1402 ± 0.0227. The 50% inhibitory concentration (IC50) on trypsin turned out to be 100 µM. Further, the “Soybean LOX inhibition (in words)” value on soybean lipoxygenase is reported as “low or no activity”. The inhibition at 100 µM at soybean lipoxygenase (100 μM, na = no activity under the reported experimental conditions, read-out: LOX Inh. % @ 100 μΜ) came to 20%. Further, in data set [2], the “ILP% @100 μΜ (% inhibition of lipid peroxidation)” value is “inactive”.

For `O=C(O)/C=C/c1cccc(Oc2ccccc2)c1` [Compound 2, (E)-3-(3-phenoxyphenyl)acrylic acid], the “RM (±SD)” value in data set [1] is −0.41 ± 0.016. Further, on soybean lipoxygenase, the IC50 is 66 µM. Besides, the “ILP% @100 μΜ (% inhibition of lipid peroxidation)” value in data set [2] is recorded as 84%.

Turning to `CC(C)N(CC(O)COc1ccc(CC(N)=O)cc1)C(=O)/C=C/c1cccc(Oc2ccccc2)c1` (stereo not shown) [Compound 2a], in data set [1], the “RM (±SD)” value stood at 0.128 ± 0.0204. Besides, the values for the IC50 on trypsin and at soybean lipoxygenase were 0.325 µM and 35 µM, respectively. The “Cytotoxicity on L929 cells as PI% values (in words)” value in data set [3] was “remarkable cytotoxicity”. For the same molecule, the “ILP% @100 μΜ (% inhibition of lipid peroxidation)” value in data set [2] was determined as 86%.

Molecule `CC(C)N(CC(O)COc1cccc2ccccc12)C(=O)/C=C/c1cccc(Oc2ccccc2)c1` (stereo not shown) [Compound 2b, (E)N-(2-hydroxy-3-(naphthalen-1-yloxy)propyl)-N-isopropyl-3-(3phenoxyphenyl) acrylamide] registered a melting point of 118 to 120 °C. Also, the “RM (±SD)” value in data set [1] was 0.907 and 0.907 ± 0.008. The IC50 on trypsin amounted to 0.425 µM. Also, at soybean lipoxygenase, the IC50 is 6 µM. Moreover, the “ILP% @100 μΜ (% inhibition of lipid peroxidation)” value in data set [2] turned out to be 84%.

In the case of `COc1ccc(/C=C/C(=O)N(CC(O)COc2ccc(CC(N)=O)cc2)C(C)C)cc1OC` (stereo not shown) [Compound 3a], the melting point was in the range of 176 to 178 °C. Further, the “RM (±SD)” value in data set [1] was −0.841 and −0.841 ± 0.0014. The IC50 at trypsin stood at 1 µM. Also, the IC50 at soybean lipoxygenase was found to be 10 µM. In data set [2], the “ILP% @100 μΜ (% inhibition of lipid peroxidation)” value is 86%.

In the case of `COc1ccc(/C=C/C(=O)N(CC(O)COc2cccc3ccccc23)C(C)C)cc1OC` (stereo not shown) [Compound 3b, (E)-3-(3,4-dimethoxyphenyl)-N-(2-hydroxy-3-(naphthalen-1-yloxy)propyl)-N-isopropylacrylamide], the melting point fell in the range of 172 to 174 °C. Also, the “RM (±SD)” value in data set [1] was 0.0819 and 0.0819 ± 0.01. Besides, on trypsin, the IC50 was found to be 0.516 µM. Further, the IC50 on soybean lipoxygenase turned out to be 10 µM. Also, the “ILP% @100 μΜ (% inhibition of lipid peroxidation)” value in data set [2] is reported as 71%.

As to `CC(C)N(C[C@H](O)COc1cccc2ccccc12)C(=O)/C=C/c1cccc(Oc2ccccc2)c1` [Compound S-2b, (S)-N-(2-hydroxy-3-(naphth-1-yloxy)propyl)-N-isopropyl-3-(3-phenoxyphenyl) acrylamide], the IC50 was 2.75 µM at trypsin and 6 µM at soybean lipoxygenase. The “ILP% @100 μΜ (% inhibition of lipid peroxidation)” value in data set [2] came out at 86%.

In the case of `O=C(O)c1ccccc1O` [Salicylic acid, reference compound], the inhibition at 100 µM on trypsin (100 μM, na = no activity under the reported experimental conditions, read-out: Trypsin Inh. % @100 μM) was 53.6%.

As to `Cc1c(C)c2c(c(C)c1O)CCC(C)(C(=O)O)O2` (stereo not shown) [Trolox, reference compound], the “ILP% @100 μΜ (% inhibition of lipid peroxidation)” value in data set [2] is recorded as 93%.

For “(E)-2-(benzylamino) ethyl 3-phenylacrylate [Compound 1e]”, the “RM (±SD)” value in data set [1] was −0.374 ± 0.0176. For the same molecule, at soybean lipoxygenase, the “Soybean LOX inhibition (in words)” value is on record as “low or no activity” and the IC50 stood at 100 µM.
